Experimental findings from PubChem BioAssay AID1324 (NMMLSC, 2008) are described below.

Molecules are shown by their SMILES. Activity calls are given as the source filed them. No rule for the calls is given here.

This assay concerns the target glutathione S-transferase (GST-GSH binding). The assay can be described thus: GST–glutathione interaction disruption – biochemical, multiplex beads, flow cytometry, HPSMTB buffer, profiling panel (AID 1324).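 As to all read-outs here: glutathione beads loaded with GST-green fluorescent protein and no fluorescent Bim peptide.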 The settings on record: multiplex bead flow cytometry, MCF; for percent span inhibition: hits give high values, concentration not given here. For orientation: In flow cytometry, cells or beads pass a laser one at a time.

`Cc1ccc(C(=O)N/N=C2/NC(=O)CC(C(=O)Nc3ccccc3)S2)cc1` (stereo not drawn): the percent span inhibition entry was “inactive”.
On the same count and under the same terms, with `Cn1cc(CN2C[C@]3(C)C[C@H]2CC(C)(C)C3)c(-c2ccc3c(c2)OCCO3)n1` the entry was “inactive”.
Still for that read-out and setting: the result for `COc1ccccc1-n1c(-c2ccc(Cl)cc2)c[nH]c1=S` reads “inactive”; that for `Cc1ccc(Nc2nc(CSc3nnc(-c4cccnc4)n3-c3ccccc3C)cs2)cc1`, “inactive”; that for `Cc1ccc(-c2cc(-c3ccc(F)cc3)c(C#N)c(N)n2)o1`, “inactive”.
As to `Cc1cc(C)c2nc3nc(C)c(C)cc3c(N)c2c1`, the percent span inhibition entry was “inactive”.
The same measure, in the same setting: the result for `O=C(Cc1ccccc1)N/N=C/c1cccn1-c1ccc([N+](=O)[O-])cc1` reads “inactive”; that for `CCOC(=O)c1snc(-c2ccc(F)cc2)c1N`, “inactive”.
On the same count and under the same terms, the result for `COc1ccccc1-n1c(SCC(=O)N2CCc3ccccc32)nc2c(c1=O)SCC2` reads “inactive”; that for `CC(=O)c1ccc2c(c1)C1C=CCC1C(c1ccncc1)N2` (stereo not drawn), “inactive”; that for `C#CCn1cc(C=C2C(=O)c3ccccc3C2=O)c2ccccc21`, “inactive”.
Still for that read-out and setting: with `CCN(CC)CCN(C(=O)c1ccc(N2C(=O)CCC2=O)cc1)c1nc2cc3c(cc2s1)OCCO3` the entry was “inactive”; with `COc1cccc(NC(=O)CSc2nncn2N)c1`, “inactive”.
Take `CC1=CC(=O)c2ccccc2C1=O`: the percent span inhibition entry was “inactive”.
Same read-out and setting: the result for `O=C(c1cc2ccccc2oc1=O)N(c1ccccc1)C1C=CS(=O)(=O)C1` (stereo not drawn) reads “inactive”; that for `O=c1nc2c(O)cccn2c2c1c(=O)[nH]c1ccccc12`, “inactive”.
The same measure, in the same setting: the result for `CNc1ccc(Br)cc(C(=O)/C=C/c2ccc(OC)cc2)c1=O` reads “inactive”.
On the same count and under the same terms, with `CCOc1ccccc1/C=N/NC(=O)CNC(=O)COc1ccccc1` the entry was “inactive”.
For `CC(C)(C)c1nc(NCCN2CCOCC2)c2nnn(Cc3ccccc3Cl)c2n1`, the percent span inhibition entry was “inactive”.
Still for that read-out and setting: the result for `CCN1CCN(c2ccc(NC(=O)c3ccc4c(c3)[nH]c(=O)n4Cc3ccc(OC)cc3)cc2)CC1` reads “inactive”; that for `CCNC(=S)Nc1ccc(OCC)cc1`, “inactive”.
In general, EC50 refers to the concentration needed to bring the measured effect to its halfway point. As for `Cc1cccc(N=C2NC(=O)/C(=C/C=C/c3ccco3)S2)c1C`, the EC50 result was “inactive”.
As for `S=c1[nH]cc(-c2ccccc2)n1-c1ccccc1`, the percent span inhibition entry was “inactive”.
The same measure, in the same setting: the result for `Cc1ccnc(NS(=O)(=O)c2ccc(NS(=O)(=O)c3cccs3)cc2)n1` reads “inactive”; that for `COc1ccc(OC)c(Nc2ccc(C(=O)O)cc2[N+](=O)[O-])c1`, “inactive”.
With `OCCC1CN(Cc2ccc3ncccc3c2)CCN1Cc1ccccc1` (stereo not drawn), the percent span inhibition result was “inactive”.
On the same count and under the same terms, the result for `CN(C)c1cccc(NC(=O)C2(C)CC2(Cl)Cl)c1` (stereo not drawn) reads “inactive”; that for `Cc1ccc(/C=C2/NC(=O)N(Cc3ccc(Br)cc3)C2=O)o1`, “inactive”; that for `Cc1ccc(C)c(NC(=O)C(=O)NCc2ccccn2)c1`, “inactive”.
Still for that read-out and setting: the result for `C=CCn1c(C)cc(-c2csc(NC)n2)c1C` reads “inactive”; that for `CC1CCN(C2(O)C(=O)Nc3ccc(Br)cc32)CC1` (stereo not drawn), “inactive”.
`COc1cccc(C(=O)/C=C/Nc2ccc(S(=O)(=O)Nc3onc(C)c3C)cc2)c1`: the percent span inhibition entry is “inactive”.
On the same count and under the same terms, with `O=C(OCc1cnc(Cl)s1)c1cccc(Cl)c1Cl` the entry was “inactive”; with `Cc1ccc(N=C2NC(=O)/C(=C/C=C/c3ccco3)S2)cc1`, “inactive”.
On the same count and under the same terms, the result for `COc1ccc(CN(CC(=O)NC2CCCC2)C(=O)CCC(=O)Nc2cc(C)on2)cc1` reads “inactive”; that for `O=C(Nc1nnc(SCc2ccccn2)s1)C1CC(=O)N(c2ccccc2)C1` (stereo not drawn), “inactive”; that for `CCOc1c(Cl)cc(CNc2ccc(N3CCCC3)cc2)cc1OC`, “inactive”.
Still for that read-out and setting: the result for `O=C(N/N=C/c1cccc([N+](=O)[O-])c1)c1cccs1` reads “inactive”; that for `O=C(Nc1ccccn1)c1cc2ccccc2o1`, “inactive”.
Take `CNc1ccc(Br)cc(C(=O)/C=C/c2ccc(OC)cc2OC)c1=O`: the percent span inhibition entry is “inactive”.
Still for that read-out and setting: the result for `Cc1ccc(NC(=O)C/C(N)=N/OC(=O)c2ccccc2)cc1` reads “inactive”; that for `O=C(c1cc(=O)c2ccccc2o1)N1CCN(c2ccccc2F)CC1`, “inactive”.
Turning to `COc1ccc(NC(=O)c2ccc3c(c2)NC(=O)CS3)cc1S(=O)(=O)Nc1ccc(Br)cc1`, the percent span inhibition result was “inactive”.
Same read-out and setting: with `CC(C(=O)Nc1ccc([N+](=O)[O-])cc1)N1CCN(C/C=C/c2ccccc2)CC1` (stereo not drawn) the entry was “inactive”; with `O=C(O)/C=C/C(=O)NNC(=O)c1ccc(Br)cc1`, “inactive”; with `O=C(COC(=O)c1ccccn1)NC1CCCCC1`, “inactive”.
Still for that read-out and setting: with `Cc1nc2cc(F)ccc2n1C1CCN(C(=O)c2c(F)cccc2F)CC1` the entry was “inactive”; with `COc1ccc(COC(=O)NNC(=O)c2ccccc2Cl)cc1`, “inactive”.
Same read-out and setting: with `CCN(CC)c1nc(N)nc(N(c2ccccc2)c2ccccc2)n1` the entry was “inactive”.
As for `O=C1CCc2cc(S(=O)(=O)NCCCC(=O)N3CCN(Cc4ccc5c(c4)OCO5)CC3)ccc2N1`, the percent span inhibition result was “inactive”.
Same read-out and setting: the result for `CCC(=O)OCCNc1cc(Sc2nccn2C)c2nonc2c1[N+](=O)[O-]` reads “inactive”; that for `CS(=O)(=O)NN1C(=O)c2ccccc2NC1c1cccc2cccnc12` (stereo not drawn), “inactive”; that for `O=C(/C=C/c1ccc(-c2ccccc2)o1)c1ccccc1`, “inactive”.
Turning to `Cc1nc(=S)c2ccccc2[nH]1`, the percent span inhibition result is “inactive”.
On the same count and under the same terms, with `O=C(c1ccc(CNS(=O)(=O)c2ccc(Br)cc2)cc1)N1CCCC1` the entry was “inactive”; with `COc1ccc(C)cc1Nc1ccc(C(=O)O)cc1[N+](=O)[O-]`, “inactive”.
Consider `Cc1ccc(-c2cc(-c3ccc(F)cc3)nc(N)c2C#N)o1`, for which the percent span inhibition entry was “inactive”.
Same read-out and setting: the result for `COc1ccc(N2C(=O)C(Cl)=C(Nc3c(C)n(C)n(-c4ccccc4)c3=O)C2=O)cc1` reads “inactive”.
Same read-out and setting: the result for `CCN1/C(=C/C(C)=C/c2sc3ccccc3[n+]2CC)Sc2ccccc21` reads “inactive”; that for `CCn1cc(C=C2C(=O)c3ccccc3C2=O)c2ccccc21`, “inactive”.
For the molecule `CCN(CC)c1ccc(-c2nn3c(-c4n[nH]c5c4CCC5)nnc3s2)cc1`, the percent span inhibition result was “inactive”.
Turning to `O=C(Cn1c2ccccc2c(=O)c2ccccc21)N/N=C/c1ccc(N2CCCC2)c([N+](=O)[O-])c1`, the percent span inhibition entry is “inactive”.
On the same count and under the same terms, with `CCSc1ncc(Cl)c(C(=O)Nc2sc3c(c2C(=O)NCc2cccnc2)CCCC3)n1` the entry was “inactive”.
On to `Cc1occc1C(=O)NNC(=S)NCc1ccccc1`, for which the percent span inhibition entry is “inactive”.
Same read-out and setting: with `Cc1noc(C)c1COc1ccc(C(=O)Nc2cccnc2)cc1` the entry was “inactive”.
Take `CCCOc1ccc(-c2c(C(=O)N/N=C/c3ccc(OC)cc3)nnn2-c2nonc2N)cc1`: the percent span inhibition result is “inactive”.
The same measure, in the same setting: with `CC(=O)OCCNc1cc(Sc2nc3ccccc3[nH]2)c2nonc2c1[N+](=O)[O-]` the entry was “inactive”; with `Cc1ccccc1OCC(=O)N/N=C/c1ccccn1`, “inactive”; with `Cc1nonc1NC(=O)CSc1nnc(-c2ccoc2C)n1C`, “inactive”.
On the same count and under the same terms, the result for `COc1c(F)c(F)c(C(=O)Nc2ccccc2N2CCN(C(=O)C(C)C)CC2)c(F)c1F` reads “inactive”.
As to `CCOC(=O)c1ccc(Nc2nc(C(=O)OCC)nc3ccccc23)cc1`, the half-maximal effective concentration (EC50) is 2.38 µM.
`CCn1c(SCC(=O)Nc2ccc(C)cc2)nnc1-c1ccc(O)cc1`: the percent span inhibition entry was “inactive”.
On the same count and under the same terms, the result for `c1ccc(-c2nc(N3CCCCC3)nc3ccccc23)cc1` reads “inactive”; that for `COc1ccc(OCCNC(=O)c2ccccc2OCC(=O)N2CCCCC2)cc1`, “inactive”; that for `O=C(CSc1nc2ccsc2c(=O)n1Cc1ccc(C(=O)O)cc1)NCC1CCCO1` (stereo not drawn), “inactive”.
Still for that read-out and setting: the result for `Cc1cc(C)c2nc3nc(C)cc(C)c3c(N)c2c1` reads “inactive”; that for `Cc1nnc(NCc2n[nH]c(=O)c3ccccc23)c2ccccc12`, “inactive”.
Still for that read-out and setting: with `Cc1cc(C)c(S(=O)(=O)/N=C2/C=C(SCC(=O)O)C(=O)c3ccccc32)cc1C` the entry was “inactive”.
With `COC(=O)c1cccc(-n2c(C)cc(C=O)c2C)c1`, the percent span inhibition entry was “inactive”.
Still for that read-out and setting: with `CCCC(=O)OCCNc1cc(Sc2nccn2C)c2nonc2c1[N+](=O)[O-]` the entry was “inactive”.
For `Cc1ccc(C(=O)/C=C/c2ccc(-c3ccc(C)cc3)o2)cc1`, the percent span inhibition entry is “inactive”.
Still for that read-out and setting: with `Cc1ccc(-c2cc(C(=O)Nc3nccs3)c3ccccc3n2)o1` the entry was “inactive”; with `CNC(=O)/C(C#N)=C/c1c(N(Cc2ccccc2)Cc2ccccc2)nc2c(C)cccn2c1=O`, “inactive”; with `COc1ccc(N2CC(C(=O)Nc3nnc(SCC(=O)c4ccccc4)s3)CC2=O)cc1` (stereo not drawn), “inactive”.
Still for that read-out and setting: the result for `O=C1C(Cl)=C(Nc2ccccc2O)C(=O)N1c1ccccc1` reads “inactive”; that for `c1ccc(-c2nc(N3CCOCC3)s[n+]2-c2ccccc2)cc1`, “inactive”.
Still for that read-out and setting: with `CC(C)Cc1cc(-c2ccco2)c(C#N)c(N)n1` the entry was “inactive”; with `COc1cc(N=c2ssnc2Cl)cc(OC)c1`, “inactive”.
